Structures can show the parent of a compound that is named as a salt.
Test system: β-lactamase producing bacteria
Assay: Test Example 1: MIC of meropenem (MEPM) combined with test compound at fixed 4 μg/mL, broth microdilution
Assay type: cell-based
Details: relative to MEPM alone
Protocol: Test Example 1: Evaluation of Minimum Inhibitory Concentration (MIC) of MEPM Against β-Lactamase Producing Bacteria
To evaluate the β-lactamase inhibitory activity of test compounds, the effect of combination of a test compound and a β-lactam agent against β-lactamase producing bacteria was evaluated. Meropenem (MEPM) was used as a β-lactam antimicrobial agent. The minimum inhibitory concentration (MIC) of MEPM against β-lactamase producing bacteria when a test compound was added at a fixed concentration (4 μg/mL) was measured by broth microdilution method (common ratio: 2). MIC of MEPM decreasing to less than 1/32 in combination with a test compound is indicated by A, decreasing from 1/32 to 1/16 is indicated by B, decreasing from ⅛ to ¼ is indicated by C, and decreasing to ½ or others are indicated by D. “-” represents untested cases.

SMILES	Decrease of MIC of MEPM in combination with a test compound, E. coli ATCC BAA-2340 (KPC)	Decrease of MIC of MEPM in combination with a test compound, K. pneumoniae ATCC BAA-2344 (KPC)	Decrease of MIC of MEPM in combination with a test compound, K. pneumoniae ATCC BAA-2524 (OXA-48)
N[C@H](Cc1ccccc1)C(=O)N1CC(Oc2ccc3c(c2C(=O)O)O[B-](O)(O)CC3)C1 [Example 25, 4,4-dihydroxy-8-[(1-D-phenylalanylazetidin-3-yl)oxy]-5-oxa-4-boranuidabicyclo[4.4.0]deca-l(6),7,9-triene-7-carboxylic acid disodium salt]	A (MIC of MEPM decreasing to less than 1/32 in combination with a test compound is indicated by A)	A (MIC of MEPM decreasing to less than 1/32 in combination with a test compound is indicated by A)	B (decreasing from 1/32 to 1/16 is indicated by B)
O=C(O)c1c(OC2CN(C(=O)Cc3nn[nH]n3)C2)ccc2c1O[B-](O)(O)CC2 [Example 24, 4,4-dihydroxy-8-({1-[(2H-tetrazol-5-yl)acetyl]azetidin-3-yl}oxy)-5-oxa-4-boranuidabicyclo[4.4.0]deca-l(6),7,9-triene-7-carboxylic acid disodium salt]	A (MIC of MEPM decreasing to less than 1/32 in combination with a test compound is indicated by A)	A (MIC of MEPM decreasing to less than 1/32 in combination with a test compound is indicated by A)	B (decreasing from 1/32 to 1/16 is indicated by B)
N[C@H](Cc1ccc(O)cc1)C(=O)N1CC(Oc2ccc3c(c2C(=O)O)O[B-](O)(O)CC3)C1 [Example 26, 4,4-dihydroxy-8-[(1-D-tyrosylazetidin-3-yl)oxy]-5-oxa-4-boranuidabicyclo[4.4.0]deca-l(6),7,9-triene-7-carboxylic acid disodium salt]	A (MIC of MEPM decreasing to less than 1/32 in combination with a test compound is indicated by A)	A (MIC of MEPM decreasing to less than 1/32 in combination with a test compound is indicated by A)	A (MIC of MEPM decreasing to less than 1/32 in combination with a test compound is indicated by A)
O=C(O)c1c(OC2CN(C(=O)NO)C2)ccc2c1OB(O)CC2 [Example 35, 2-hydroxy-7-{[1-(hydroxycarbamoyl)azetidin-3-yl]oxy}-3,4-dihydro-2H-1,2-benzoxaborinine-8-carboxylic Acid]	A (MIC of MEPM decreasing to less than 1/32 in combination with a test compound is indicated by A)	A (MIC of MEPM decreasing to less than 1/32 in combination with a test compound is indicated by A)	B (decreasing from 1/32 to 1/16 is indicated by B)
CCN1CCN(C(=O)N[C@@H](C(=O)N2CC(Oc3ccc4c(c3C(=O)O)O[B-](O)(O)CC4)C2)c2ccccc2)C(=O)C1=O [Example 30, 8-[(1-{(2R)-2-[(4-ethyl-2,3-dioxopiperazine-1-carbonyl)amino]-2-phenylacetyl}azetidin-3-yl)oxy]-4,4-dihydroxy-5-oxa-4-boranuidabicyclo[4.4.0]deca-l(6),7,9-triene-7-carboxylic acid disodium salt]	–	A (MIC of MEPM decreasing to less than 1/32 in combination with a test compound is indicated by A)	B (decreasing from 1/32 to 1/16 is indicated by B)
CSCC(=O)N1CC(Oc2ccc3c(c2C(=O)O)O[B-](O)(O)CC3)C1 [Example 7, 4,4-dihydroxy-8-({1-[(methylsulfanyl)acetyl]azetidin-3-yl}oxy)-5-oxa-4-boranuidabicyclo[4.4.0]deca-l(6),7,9-triene-7-carboxylic acid disodium salt]	A (MIC of MEPM decreasing to less than 1/32 in combination with a test compound is indicated by A)	A (MIC of MEPM decreasing to less than 1/32 in combination with a test compound is indicated by A)	B (decreasing from 1/32 to 1/16 is indicated by B)
O=C(O)c1c(OC2CN(C(=O)[C@H]3CCCN3)C2)ccc2c1O[B-](O)(O)CC2 [Example 31, 4,4-dihydroxy-8-[(1-D-prolylazetidin-3-yl)oxy]-5-oxa-4-boranuidabicyclo[4.4.0]deca-l(6),7,9-triene-7-carboxylic acid disodium salt]	–	A (MIC of MEPM decreasing to less than 1/32 in combination with a test compound is indicated by A)	B (decreasing from 1/32 to 1/16 is indicated by B)
O=C(O)c1c(OC2CN(C(=O)Cc3ccncc3)C2)ccc2c1O[B-](O)(O)CC2 [Example 16, 4,4-dihydroxy-8-({1-[(pyridin-4-yl)acetyl]azetidin-3-yl}oxy)-5-oxa-4-boranuidabicyclo[4.4.0]deca-l(6),7,9-triene-7-carboxylic acid disodium salt]	A (MIC of MEPM decreasing to less than 1/32 in combination with a test compound is indicated by A)	–	B (decreasing from 1/32 to 1/16 is indicated by B)
O=C(O)c1c(OC2CN(C(=O)Cc3cnc[nH]3)C2)ccc2c1OB(O)CC2 [Example 2, 2-hydroxy-7-({1-[(1H-imidazol-5-yl)acetyl]azetidin-3-yl}oxy)-3,4-dihydro-2H-1,2-benzoxaborinine-8-carboxylic Acid Hydrochloride]	A (MIC of MEPM decreasing to less than 1/32 in combination with a test compound is indicated by A)	A (MIC of MEPM decreasing to less than 1/32 in combination with a test compound is indicated by A)	B (decreasing from 1/32 to 1/16 is indicated by B)
N[C@H](C(=O)N1CC(Oc2ccc3c(c2C(=O)O)O[B-](O)(O)CC3)C1)c1ccccc1 [Example 15, 8-({1-[(2S)-2-amino-2-phenylacetyl]azetidin-3-yl}oxy)-4,4-dihydroxy-5-oxa-4-boranuidabicyclo[4.4.0]deca-l(6),7,9-triene-7-carboxylic acid disodium salt]	A (MIC of MEPM decreasing to less than 1/32 in combination with a test compound is indicated by A)	A (MIC of MEPM decreasing to less than 1/32 in combination with a test compound is indicated by A)	B (decreasing from 1/32 to 1/16 is indicated by B)
O=C(O)c1c(OC2CN(C(=O)Cc3ccccn3)C2)ccc2c1O[B-](O)(O)CC2 [Example 13, 4,4-dihydroxy-8-({1-[(pyridin-2-yl)acetyl]azetidin-3-yl}oxy)-5-oxa-4-boranuidabicyclo[4.4.0]deca-l(6),7,9-triene-7-carboxylic acid disodium salt]	A (MIC of MEPM decreasing to less than 1/32 in combination with a test compound is indicated by A)	A (MIC of MEPM decreasing to less than 1/32 in combination with a test compound is indicated by A)	B (decreasing from 1/32 to 1/16 is indicated by B)
CC(C)[C@@H](N)C(=O)N1CC(Oc2ccc3c(c2C(=O)O)O[B-](O)(O)CC3)C1 [Example 28, 4,4-dihydroxy-8-[(1-D-valylazetidin-3-yl)oxy]-5-oxa-4-boranuidabicyclo[4.4.0]deca-l(6),7,9-triene-7-carboxylic acid disodium salt]	A (MIC of MEPM decreasing to less than 1/32 in combination with a test compound is indicated by A)	A (MIC of MEPM decreasing to less than 1/32 in combination with a test compound is indicated by A)	B (decreasing from 1/32 to 1/16 is indicated by B)
N[C@@H](C(=O)N1CC(Oc2ccc3c(c2C(=O)O)O[B-](O)(O)CC3)C1)c1ccc(O)cc1 [Example 4, 8-({1-[(2R)-2-amino-2-(4-hydroxyphenyl)acetyl]azetidin-3-yl}oxy)-4,4-dihydroxy-5-oxa-4-boranuidabicyclo[4.4.0]deca-l(6),7,9-triene-7-carboxylic Acid Disodium Salt]	A (MIC of MEPM decreasing to less than 1/32 in combination with a test compound is indicated by A)	A (MIC of MEPM decreasing to less than 1/32 in combination with a test compound is indicated by A)	A (MIC of MEPM decreasing to less than 1/32 in combination with a test compound is indicated by A)
CC(=O)N1CC(Oc2ccc3c(c2C(=O)O)OB(O)CC3)C1 [Example 1, 7-[(1-acetylazetidin-3-yl)oxy]-2-hydroxy-3,4-dihydro-2H-1,2-benzoxaborinine-8-carboxylic Acid]	A (MIC of MEPM decreasing to less than 1/32 in combination with a test compound is indicated by A)	A (MIC of MEPM decreasing to less than 1/32 in combination with a test compound is indicated by A)	B (decreasing from 1/32 to 1/16 is indicated by B)

Source: patent US11066425B1, “Oxo-substituted compound” (SUMITOMO DAINIPPON PHARMA CO., LTD., priority 2018, dated 2021)
